Columns and labels:
Type in all cases: in vivo
[1] = tested on: Spodoptera littoralis (Egyptian Cotton Leaf Worm); assay: Example B1: Activity against Spodoptera littoralis, sprayed cotton leaf discs; settings: foliar, 72 h, application rate 200 ppm, L1 larvae, 3 days after infestation, read-out: control in at least one of the three categories (mortality, anti-feedancy or growth inhibition)
Procedure: Example B1: Activity Against Spodoptera littoralis (Egyptian Cotton Leaf Worm)
Cotton leaf discs were placed on agar in 24-well microtiter plates and sprayed with aqueous test solutions prepared from 10′000 ppm DMSO stock solutions. After drying the leaf discs were infested with five L1 larvae. The samples were assessed for mortality, anti-feedant effect, and growth inhibition in comparison to untreated samples 3 days after infestation. Control of Spodoptera littoralis by a test sample is when at least one of mortality, anti-feedant effect, and growth inhibition is higher than the untreated sample.

[2] = tested on: Plutella xylostella (Diamond Back Moth); assay: Example B3: Activity against Plutella xylostella, artificial diet; settings: 120 h, application rate 200 ppm, L2 larvae, 5 days after infestation, read-out: effect in at least one of the two categories (mortality or growth inhibition)
Procedure: Example B3: Activity Against Plutella xylostella (Diamond Back Moth)
(§1) 24-well microtiter plates with artificial diet were treated with aqueous test solutions prepared from 10′000 ppm DMSO stock solutions by pipetting. After drying, the plates were infested with L2 larvae (10 to 15 per well). The samples were assessed for mortality and growth inhibition in comparison to untreated samples 5 days after infestation.

[3] = tested on: Diabrotica Balteata (Corn Root Worm); assay: Example B4: Activity against Diabrotica balteata, sprayed maize sprouts; settings: 96 h, application rate 200 ppm, L2 larvae, 4 days after infestation, read-out: effect in at least one of the two categories (mortality or growth inhibition)
Procedure: Example B4: Activity Against Diabrotica Balteata (Corn Root Worm)
as §1, with “Maize sprouts, placed on an agar layer in 24-well” for “24-well”, “plates” for “plates with artificial diet”, “spraying.” for “pipetting.”, “(6” for “(10”, “10” for “15”, “4” for “5”

[4] = tested on: Euschistus heros (Neotropical Brown Stink Bug); assay: Example B7: Activity against Euschistus heros, sprayed soybean leaf; settings: 120 h, application rate 200 ppm, N-2 nymphs, 5 days after infestation
Procedure: Example B7: Activity Against Euschistus heros (Neotropical Brown Stink Bug)
Soybean leaf on agar in 24-well microtiter plates were sprayed with aqueous test solutions prepared from 10′000 ppm DMSO stock solutions. After drying the leaf were infested with N-2 nymphs. The samples were assessed for mortality 5 days after infestation.

[5] = tested on: Myzus persicae (Green Peach Aphid); assay: Example B8: Activity against Myzus persicae, sprayed sunflower leaf discs; settings: foliar, 144 h, application rate 200 ppm, aphid population of mixed ages, 6 days after infestation
Procedure: Example B8: Activity Against Myzus persicae (Green Peach Aphid)
Sunflower leaf discs were placed on agar in a 24-well microtiter plate and sprayed with aqueous test solutions prepared from 10′000 ppm DMSO stock solutions. After drying, the leaf discs were infested with an aphid population of mixed ages. The samples were assessed for mortality 6 days after infestation.

CCSc1cc(-c2ccc(Cl)cc2)cnc1C(=O)N(C)c1nnc(C(F)(F)F)s1 [Compound P1, 5-(4-chlorophenyl)-3-ethylsulfanyl-N-methyl-N-[5-(trifluoromethyl)-1,3,4-thiadiazol-2-yl]pyridine-2-carboxamide]
≥ 80%: percent control (mortality, anti-feedant effect or growth inhibition) at 200 ppm [1] | percent effect (mortality or growth inhibition) at 200 ppm [2] | percent effect (mortality or growth inhibition) at 200 ppm [3] | mortality at 200 ppm [4]

CCS(=O)(=O)c1ccc(-c2cnc(C(=O)N(C)c3nnc(C(F)(F)F)s3)c(S(=O)(=O)CC)c2)cc1 [Compound P3]
≥ 80%: percent control (mortality, anti-feedant effect or growth inhibition) at 200 ppm [1] | percent effect (mortality or growth inhibition) at 200 ppm [2] | percent effect (mortality or growth inhibition) at 200 ppm [3]

CCS(=O)(=O)c1cc(-n2ccc(C(F)(F)F)n2)cnc1C(=O)Nc1nnc(C(F)(F)C(F)(F)F)s1 [Compound P7]
≥ 80%: percent effect (mortality or growth inhibition) at 200 ppm [3]

CCS(=O)(=O)c1cc(-c2ccc(-c3ccc(Cl)cc3)cc2)cnc1C(=O)N(C)c1nnc(C(F)(F)F)s1 [Compound P9]
≥ 80%: percent control (mortality, anti-feedant effect or growth inhibition) at 200 ppm [1] | percent effect (mortality or growth inhibition) at 200 ppm [2] | percent effect (mortality or growth inhibition) at 200 ppm [3]

CCS(=O)(=O)c1cc(-c2ccc(C(F)(F)F)cc2)cnc1C(=O)Nc1nnc(C(F)(F)C(F)(F)F)s1 [Compound P10]
≥ 80%: percent effect (mortality or growth inhibition) at 200 ppm [3]

CCS(=O)(=O)c1cc(-c2ccc(C(F)(F)F)cc2)cnc1C(=O)N(C)c1nnc(C(F)(F)C(F)(F)F)s1 [Compound P11]
≥ 80%: percent control (mortality, anti-feedant effect or growth inhibition) at 200 ppm [1] | percent effect (mortality or growth inhibition) at 200 ppm [2] | percent effect (mortality or growth inhibition) at 200 ppm [3] | mortality at 200 ppm [4]

CCS(=O)(=O)c1cc(-c2ccc(Cl)cc2)cnc1C(=O)Nc1nnc(C(F)(F)C(F)(F)F)s1 [Compound P13]
≥ 80%: percent effect (mortality or growth inhibition) at 200 ppm [2] | percent effect (mortality or growth inhibition) at 200 ppm [3]

CCS(=O)(=O)c1cc(-n2ccc(C(F)(F)F)n2)cnc1C(=O)N(C)c1nnc(C(F)(F)C(F)(F)F)s1 [Compound P15]
≥ 80%: percent control (mortality, anti-feedant effect or growth inhibition) at 200 ppm [1] | percent effect (mortality or growth inhibition) at 200 ppm [2] | percent effect (mortality or growth inhibition) at 200 ppm [3] | mortality at 200 ppm [4]

CCSc1cc(-n2ccc(C(F)(F)F)n2)cnc1C(=O)N(C)c1nnc(C(F)(F)F)s1 [Compound P16, 3-ethylsulfanyl-N-methyl-5-[3-(trifluoromethyl)pyrazol-1-yl]-N-[5-(trifluoromethyl)-1,3,4-thiadiazol-2-yl]pyridine-2-carboxamide]
≥ 80%: percent control (mortality, anti-feedant effect or growth inhibition) at 200 ppm [1] | percent effect (mortality or growth inhibition) at 200 ppm [3]

CCS(=O)(=O)c1cc(-n2ccc(C(F)(F)F)n2)cnc1C(=O)N(C)c1nnc(C(F)(F)F)s1 [Compound P17, 3-ethylsulfonyl-N-methyl-5-[3-(trifluoromethyl)pyrazol-1-yl]-N-[5-(trifluoromethyl)-1,3,4-thiadiazol-2-yl]pyridine-2-carboxamide]
≥ 80%: percent control (mortality, anti-feedant effect or growth inhibition) at 200 ppm [1] | percent effect (mortality or growth inhibition) at 200 ppm [2] | percent effect (mortality or growth inhibition) at 200 ppm [3] | mortality at 200 ppm [4]

CCS(=O)(=O)c1cc(C2(C#N)CC2)cnc1C(=O)N(C)c1nnc(C(F)(F)F)s1 [Compound P18]
≥ 80%: percent control (mortality, anti-feedant effect or growth inhibition) at 200 ppm [1] | percent effect (mortality or growth inhibition) at 200 ppm [2] | percent effect (mortality or growth inhibition) at 200 ppm [3] | mortality at 200 ppm [5]

CCS(=O)(=O)c1cc(-c2ccc(Cl)cc2)c[n+]([O-])c1C(=O)N(C)c1nnc(C(F)(F)F)s1 [Compound P19, 5-(4-chlorophenyl)-3-ethylsulfonyl-N-methyl-1-oxido-N-[5-(trifluoromethyl)-1,3,4-thiadiazol-2-yl]pyridin-1-ium-2-carboxamide]
≥ 80%: percent control (mortality, anti-feedant effect or growth inhibition) at 200 ppm [1] | percent effect (mortality or growth inhibition) at 200 ppm [2] | percent effect (mortality or growth inhibition) at 200 ppm [3] | mortality at 200 ppm [4]

CCS(=O)(=O)c1ccc(-c2ccc(C(F)(F)F)cc2)nc1C(=O)N(C)c1nnc(C(F)(F)F)s1 [Compound P21, 3-ethylsulfonyl-N-methyl-6-[4-(trifluoromethyl)phenyl]-N-[5-(trifluoromethyl)-1,3,4-thiadiazol-2-yl]pyridine-2-carboxamide]
≥ 80%: percent control (mortality, anti-feedant effect or growth inhibition) at 200 ppm [1] | percent effect (mortality or growth inhibition) at 200 ppm [2] | percent effect (mortality or growth inhibition) at 200 ppm [3]

CCS(=O)(=O)c1cc(-c2ccc(OC(F)(F)F)cc2)cnc1C(=O)N(C)c1nnc(C(F)(F)F)s1 [Compound P22]
≥ 80%: percent control (mortality, anti-feedant effect or growth inhibition) at 200 ppm [1] | percent effect (mortality or growth inhibition) at 200 ppm [2] | percent effect (mortality or growth inhibition) at 200 ppm [3] | mortality at 200 ppm [5] | mortality at 200 ppm [4]

CCS(=O)(=O)c1cc(-c2cccc(C#N)c2)cnc1C(=O)N(C)c1nnc(C(F)(F)F)s1 [Compound P23]
≥ 80%: percent control (mortality, anti-feedant effect or growth inhibition) at 200 ppm [1] | percent effect (mortality or growth inhibition) at 200 ppm [2] | percent effect (mortality or growth inhibition) at 200 ppm [3]

CCS(=O)(=O)c1cc(-c2cc(Cl)cc(Cl)c2)cnc1C(=O)N(C)c1nnc(C(F)(F)F)s1 [Compound P24]
≥ 80%: percent control (mortality, anti-feedant effect or growth inhibition) at 200 ppm [1] | percent effect (mortality or growth inhibition) at 200 ppm [2] | percent effect (mortality or growth inhibition) at 200 ppm [3]

CCS(=O)(=O)c1cc(-c2cc(Cl)c(F)c(Cl)c2)cnc1C(=O)N(C)c1nnc(C(F)(F)F)s1 [Compound P27]
≥ 80%: percent control (mortality, anti-feedant effect or growth inhibition) at 200 ppm [1] | percent effect (mortality or growth inhibition) at 200 ppm [2] | percent effect (mortality or growth inhibition) at 200 ppm [3]

CCS(=O)(=O)c1cc(-c2ccc(Cl)cc2Cl)cnc1C(=O)N(C)c1nnc(C(F)(F)F)s1 [Compound P34]
≥ 80%: percent control (mortality, anti-feedant effect or growth inhibition) at 200 ppm [1] | percent effect (mortality or growth inhibition) at 200 ppm [2] | percent effect (mortality or growth inhibition) at 200 ppm [3] | mortality at 200 ppm [4]

CCS(=O)(=O)c1cc(-c2cncs2)cnc1C(=O)N(C)c1nnc(C(F)(F)F)s1 [Compound P40]
≥ 80%: percent control (mortality, anti-feedant effect or growth inhibition) at 200 ppm [1] | percent effect (mortality or growth inhibition) at 200 ppm [2] | percent effect (mortality or growth inhibition) at 200 ppm [3] | mortality at 200 ppm [5] | mortality at 200 ppm [4]

CCS(=O)(=O)c1cc(-c2cccc(C(F)(F)F)n2)cnc1C(=O)N(C)c1nnc(C(F)(F)F)s1 [Compound P45]
≥ 80%: percent control (mortality, anti-feedant effect or growth inhibition) at 200 ppm [1] | percent effect (mortality or growth inhibition) at 200 ppm [2] | percent effect (mortality or growth inhibition) at 200 ppm [3] | mortality at 200 ppm [5]

CCS(=O)(=O)c1cc(-c2ccc(Cl)c(Cl)n2)cnc1C(=O)N(C)c1nnc(C(F)(F)F)s1 [Compound P46]
≥ 80%: percent control (mortality, anti-feedant effect or growth inhibition) at 200 ppm [1] | percent effect (mortality or growth inhibition) at 200 ppm [2] | percent effect (mortality or growth inhibition) at 200 ppm [3]

CCS(=O)(=O)c1cc(-c2cccc(C#N)n2)cnc1C(=O)N(C)c1nnc(C(F)(F)F)s1 [Compound P50]
≥ 80%: percent control (mortality, anti-feedant effect or growth inhibition) at 200 ppm [1] | percent effect (mortality or growth inhibition) at 200 ppm [2] | percent effect (mortality or growth inhibition) at 200 ppm [3]

CCS(=O)(=O)c1cc(-c2ccc(C(F)(F)F)cn2)cnc1C(=O)N(C)c1nnc(C(F)(F)F)s1 [Compound P53]
≥ 80%: percent control (mortality, anti-feedant effect or growth inhibition) at 200 ppm [1] | percent effect (mortality or growth inhibition) at 200 ppm [2] | percent effect (mortality or growth inhibition) at 200 ppm [3]

CCS(=O)(=O)c1cc(-c2cncc(C(F)(F)F)c2)cnc1C(=O)N(C)c1nnc(C(F)(F)F)s1 [Compound P55]
≥ 80%: percent control (mortality, anti-feedant effect or growth inhibition) at 200 ppm [1] | percent effect (mortality or growth inhibition) at 200 ppm [3]

CCS(=O)(=O)c1cc(-c2ccnc(Cl)c2)cnc1C(=O)N(C)c1nnc(C(F)(F)F)s1 [Compound P57]
≥ 80%: percent control (mortality, anti-feedant effect or growth inhibition) at 200 ppm [1] | percent effect (mortality or growth inhibition) at 200 ppm [2] | percent effect (mortality or growth inhibition) at 200 ppm [3] | mortality at 200 ppm [5] | mortality at 200 ppm [4]

CCS(=O)(=O)c1cc(-c2ccnc(C(F)(F)F)n2)cnc1C(=O)N(C)c1nnc(C(F)(F)F)s1 [Compound P60]
≥ 80%: percent control (mortality, anti-feedant effect or growth inhibition) at 200 ppm [1] | percent effect (mortality or growth inhibition) at 200 ppm [2] | percent effect (mortality or growth inhibition) at 200 ppm [3] | mortality at 200 ppm [5] | mortality at 200 ppm [4]

CCS(=O)(=O)c1cc(-c2ncc(C#N)cn2)cnc1C(=O)N(C)c1nnc(C(F)(F)F)s1 [Compound P63]
≥ 80%: percent control (mortality, anti-feedant effect or growth inhibition) at 200 ppm [1] | percent effect (mortality or growth inhibition) at 200 ppm [2] | percent effect (mortality or growth inhibition) at 200 ppm [3] | mortality at 200 ppm [4]

From US10590123B2, “Pesticidally active amide heterocyclic derivatives with sulphur containing substituents” (SYNGENTA PARTICIPATIONS AG, priority 2014, dated 2020)
